Converted amounts (≈) assume the structure as drawn. Where two headings read alike, the source gives them in different places.
Test: Solubility testing of (Z)-endoxifen in single solvents
Type: physicochemical
Conditions: for solubility at 15 min: 25 °C, room temperature; for solubility at 15 min / solubility: thermodynamic from solid
Experimental: To test the solubility of (Z)-endoxifen in varying conditions, 10 mg of (Z)-endoxifen was added to a stoppered tube, and 0.01 ml of the selected solvent was added (1000 mg/ml solution). The tube was shaken vigorously for 1 minute and then incubated at a constant temperature of 25.0° C. for 15 minutes. If the solid was not completed dissolved, the tube was shaken again and placed at the constant temperature of 25.0° C. for another 15 minutes. If the solid was completely dissolved at this step, it was considered to be very soluble in the selected solvent system. If the solid was not dissolved by this step, another 0.09 ml was added (yielding a 100 mg/ml solution) and an attempt to further dissolve the solid was made by the same steps of shaking and incubating twice over as described previously. If the solid was completely dissolved at this step, it was considered freely soluble. If the solid was not dissolved by this step another 0.2 ml was added (yielding a 33.3 mg/ml solution) and an attempt to further dissolve the solid was made by the same steps of shaking and incubating twice over as described previously. If the solid was completely dissolved at this step, it was considered soluble. If the solid was not dissolved by this step another, 0.7 ml was added (yielding a 10 mg/ml solution) and an attempt to further dissolve the solid was made by the same steps of shaking and incubating twice over as described previously. If the solid was completely dissolved at this step, it was considered sparingly soluble. If the solid was not dissolved by this step the sample was considered to be slightly soluble or very slightly soluble and the solution was heated until the boiling point of the solvent system (max 100° C.) under stirring with a rate of 0.5° C. per minute temperature ramp rate to verify the solubility at high temperatures. The hot solution was after cooled to room temperature with a cooling rate of 0.5° C. per minute to verify if the sample had precipitated after up to 18 hours under magnetic stirring. The same procedure was also used for the solvent mixture solubility tests. The concentrations investigated for the solvent mixture stability were 40 mg/ml and 100 mg/ml. Some solutions in the following example were precipitated by cooling of the solution from a temperature between 50-100° C. to between 10-25° C. at a rate ranging from −0.2 to −0.5° C./minute resulting in a precipitate.

[1] = solvent butyl acetate, 100 mg/mL
[2] = solvent ethyl acetate, 100 mg/mL
[3] = solvent methyl isobutyl ketone (4-methyl-2-pentanone), 100 mg/mL
[4] = solvent methyl isobutyl ketone (4-methyl-2-pentanone), 200 mg/mL

Solubility HT (10 mg/mL): Clear point (solvent butyl acetate, 10 mg/mL): 50 °C
Solubility HT (10 mg/mL): Sol. HT (solvent butyl acetate, 10 mg/mL, high temperature): YES
Solubility HT (20 mg/mL): Clear point (solvent butyl acetate, 20 mg/mL): 56.8 °C
Solubility HT (20 mg/mL): Sol. HT (solvent butyl acetate, 20 mg/mL, high temperature): YES
Solubility HT (100 mg/mL): Clear point [1]: 94.5 °C
Solubility HT (100 mg/mL): Cloudy point [1]: 25 °C
Solubility HT (100 mg/mL): Sol. HT (solvent butyl acetate, 100 mg/mL, high temperature): YES
Solubility HT (100 mg/mL): Re-PPT (solvent butyl acetate, 100 mg/mL, on cooling): YES
Solubility HT (10 mg/mL): Clear point (solvent ethanol, 10 mg/mL): 34 °C
Solubility HT (10 mg/mL): Sol. HT (solvent ethanol, 10 mg/mL, high temperature): YES
Solubility HT (20 mg/mL): Clear point (solvent ethanol, 20 mg/mL): 34 °C
Solubility HT (20 mg/mL): Sol. HT (solvent ethanol, 20 mg/mL, high temperature): YES
Solubility HT (20 mg/mL): Re-PPT (solvent ethanol, 20 mg/mL, on cooling): YES
Solubility HT (100 mg/mL): Clear point (solvent ethanol, 100 mg/mL): 66 °C
Solubility HT (100 mg/mL): Cloudy point (solvent ethanol, 100 mg/mL): 39.7 °C
Solubility HT (100 mg/mL): Sol. HT (solvent ethanol, 100 mg/mL, high temperature): YES
Solubility HT (100 mg/mL): Re-PPT (solvent ethanol, 100 mg/mL, on cooling): YES
Solubility HT (10 mg/mL): Clear point (solvent ethyl acetate, 10 mg/mL): 38 °C
Solubility HT (10 mg/mL): Sol. HT (solvent ethyl acetate, 10 mg/mL, high temperature): YES
Solubility HT (20 mg/mL): Clear point (solvent ethyl acetate, 20 mg/mL): 49.2 °C
Solubility HT (20 mg/mL): Sol. HT (solvent ethyl acetate, 20 mg/mL, high temperature): YES
Solubility HT (100 mg/mL): Clear point [2]: 74.4 °C
Solubility HT (100 mg/mL): Cloudy point [2]: 54.2 °C
Solubility HT (100 mg/mL): Sol. HT (solvent ethyl acetate, 100 mg/mL, high temperature): YES
Solubility HT (100 mg/mL): Re-PPT (solvent ethyl acetate, 100 mg/mL, on cooling): YES
Solubility HT (10 mg/mL): Clear point (solvent methyl isobutyl ketone (4-methyl-2-pentanone), 10 mg/mL): 44 °C
Solubility HT (10 mg/mL): Sol. HT (solvent methyl isobutyl ketone (4-methyl-2-pentanone), 10 mg/mL, high temperature): YES
Solubility HT (20 mg/mL): Clear point (solvent methyl isobutyl ketone (4-methyl-2-pentanone), 20 mg/mL): 49.3 °C
Solubility HT (20 mg/mL): Sol. HT (solvent methyl isobutyl ketone (4-methyl-2-pentanone), 20 mg/mL, high temperature): YES
Solubility HT (100 mg/mL): Clear point [3]: 74.8 °C
Solubility HT (100 mg/mL): Re-PPT after 18 hours at −20° C. [3]: YES
Solubility HT (100 mg/mL): Sol. HT (solvent methyl isobutyl ketone (4-methyl-2-pentanone), 100 mg/mL, high temperature): YES
Solubility HT (200 mg/mL): Clear Point [4]: 84 °C
Solubility HT (200 mg/mL): Cloudy point [4]: 48.5 °C
Solubility HT (200 mg/mL): Sol. HT (solvent methyl isobutyl ketone (4-methyl-2-pentanone), 200 mg/mL, high temperature): YES
Solubility HT (200 mg/mL): Re-PPT (solvent methyl isobutyl ketone (4-methyl-2-pentanone), 200 mg/mL, on cooling): YES
Solubility HT (10 mg/mL): Clear point (solvent toluene, 10 mg/mL): 66 °C
Solubility HT (10 mg/mL): Sol. HT (solvent toluene, 10 mg/mL, high temperature): YES
Solubility HT (20 mg/mL): Clear point (solvent toluene, 20 mg/mL): 77.8 °C
Solubility HT (20 mg/mL): Sol. HT (solvent toluene, 20 mg/mL, high temperature): YES
Solubility HT (100 mg/mL): Clear point (solvent toluene, 100 mg/mL): 96.6 °C
Solubility HT (100 mg/mL): Cloudy point (solvent toluene, 100 mg/mL): 25 °C
Solubility HT (100 mg/mL): Sol. HT (solvent toluene, 100 mg/mL, high temperature): YES
Solubility HT (100 mg/mL): Re-PPT (solvent toluene, 100 mg/mL, on cooling): YES
solubility at 15 min (t-butyl methyl ether, organic solvent or mixture, t-butyl methyl ether, read-out: Solubility): < 10000 µg/mL
solubility (t-butyl methyl ether, organic solvent or mixture, t-butyl methyl ether, high temperature, read-out: Solubility): < 10000 µg/mL
solubility at 15 min (tetrahydrofuran, organic solvent or mixture, solvent tetrahydrofuran, read-out: Solubility at RT): 111000 to 125000 µg/mL (≈ 297 to 335 mM)
solubility at 15 min (toluene, organic solvent or mixture, solvent toluene, read-out: Solubility at RT): 10000 µg/mL (≈ 26.8 mM)
solubility at 15 min (toluene, organic solvent or mixture, toluene, read-out: Solubility): 10000 µg/mL (≈ 26.8 mM)
solubility (toluene, organic solvent or mixture, toluene, high temperature, read-out: Solubility): 20000 to 100000 µg/mL (≈ 53.5 to 268 mM)
solubility at 15 min (water, water, solvent water, read-out: Solubility at RT): < 10000 µg/mL
solubility at 15 min (water, water, water, read-out: Solubility): < 10000 µg/mL
solubility (water, 100 °C, water, solvent water, 10 mg/mL, high temperature, read-out: Solubility HT (10 mg/mL): Sol. HT): < 10000 µg/mL
solubility (water, 100 °C, water, water, high temperature, read-out: Solubility): < 10000 µg/mL
Compound: CC/C(=C(\c1ccc(O)cc1)c1ccc(OCCNC)cc1)c1ccccc1 [(Z)-endoxifen, (Z)-4-(1-(4-(2-(methylamino)ethoxy)phenyl)-2-phenylbut-1-enyl)phenol]
